According to ChEMBL document CHEMBL1201862, “PubChem BioAssay data set” (2004):
Where “and” joins values, the source holds several entries; their conditions need not be identical. Equal values may be shown once. Calls of active or inactive are those of the source.

How the values were obtained:
[1] = target: T1, Replicative DNA helicase DnaB (Mycobacterium tuberculosis, UniProt P9WMR3); experiment: DnaB intein splicing inhibitors, dose response, biochemical, cell-free fluorescence (AID 449749); type: functional
T1 sequence (P9WMR3 whole entry): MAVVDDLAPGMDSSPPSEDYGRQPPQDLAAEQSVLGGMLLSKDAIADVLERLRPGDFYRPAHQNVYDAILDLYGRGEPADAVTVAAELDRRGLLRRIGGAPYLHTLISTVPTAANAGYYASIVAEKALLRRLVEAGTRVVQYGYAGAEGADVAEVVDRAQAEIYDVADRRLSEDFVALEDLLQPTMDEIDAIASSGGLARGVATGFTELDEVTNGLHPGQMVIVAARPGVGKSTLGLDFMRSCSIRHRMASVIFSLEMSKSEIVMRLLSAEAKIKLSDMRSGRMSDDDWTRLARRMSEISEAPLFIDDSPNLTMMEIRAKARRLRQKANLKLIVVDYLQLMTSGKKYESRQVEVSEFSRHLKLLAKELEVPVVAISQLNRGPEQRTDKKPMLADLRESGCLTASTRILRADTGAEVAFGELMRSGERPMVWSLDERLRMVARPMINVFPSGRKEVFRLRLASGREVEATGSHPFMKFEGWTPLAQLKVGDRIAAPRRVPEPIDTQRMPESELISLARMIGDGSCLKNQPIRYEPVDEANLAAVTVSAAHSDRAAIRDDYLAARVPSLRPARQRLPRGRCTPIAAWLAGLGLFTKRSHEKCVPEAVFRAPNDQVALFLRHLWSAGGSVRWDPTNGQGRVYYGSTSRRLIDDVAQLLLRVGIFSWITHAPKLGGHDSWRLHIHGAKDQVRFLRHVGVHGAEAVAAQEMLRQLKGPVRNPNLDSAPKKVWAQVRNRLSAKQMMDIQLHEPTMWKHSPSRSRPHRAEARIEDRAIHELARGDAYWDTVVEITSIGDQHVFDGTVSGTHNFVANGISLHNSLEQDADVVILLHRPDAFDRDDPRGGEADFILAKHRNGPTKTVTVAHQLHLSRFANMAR

[2] = target: Heat shock protein HSP 90-alpha (Homo sapiens, UniProt P07900); type: functional, organism-based
[3] = target: T2, Protein RecA (Mycobacterium tuberculosis, UniProt P9WHJ3); experiment: Fluorescence Cell-Free Homogeneous Dose Retest to Identify Inhibitors of RecA-Intein Splicing Activity. [Related pubchem assays (depositor defined):AID2097, AID2223, AID489010, AID492950]; type: functional
T2 sequence (P9WHJ3 whole entry): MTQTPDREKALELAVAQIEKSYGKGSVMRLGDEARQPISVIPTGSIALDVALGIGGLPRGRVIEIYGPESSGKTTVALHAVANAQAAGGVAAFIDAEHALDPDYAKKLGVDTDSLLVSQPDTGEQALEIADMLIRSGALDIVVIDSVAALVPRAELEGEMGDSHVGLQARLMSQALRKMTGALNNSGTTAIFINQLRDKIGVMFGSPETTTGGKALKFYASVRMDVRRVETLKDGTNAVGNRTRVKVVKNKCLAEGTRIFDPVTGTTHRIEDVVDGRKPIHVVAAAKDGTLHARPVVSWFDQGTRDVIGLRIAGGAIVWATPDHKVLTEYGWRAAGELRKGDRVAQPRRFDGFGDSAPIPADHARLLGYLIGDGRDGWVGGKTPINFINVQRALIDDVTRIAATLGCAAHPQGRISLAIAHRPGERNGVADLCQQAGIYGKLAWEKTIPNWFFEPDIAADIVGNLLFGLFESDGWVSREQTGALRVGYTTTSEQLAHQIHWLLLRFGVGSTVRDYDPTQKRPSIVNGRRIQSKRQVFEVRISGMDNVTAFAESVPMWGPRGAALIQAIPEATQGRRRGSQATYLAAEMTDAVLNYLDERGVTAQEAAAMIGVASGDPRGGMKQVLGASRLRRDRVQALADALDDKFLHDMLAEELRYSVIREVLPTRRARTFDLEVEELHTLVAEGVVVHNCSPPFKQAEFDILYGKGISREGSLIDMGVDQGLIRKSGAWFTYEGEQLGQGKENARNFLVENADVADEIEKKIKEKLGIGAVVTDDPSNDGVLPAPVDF

[4] = Luminescence Cell-Based Dose Retest to Confirm Inhibitors of Cancer Stem Cells. [Related pubchem assays (depositor defined):AID2717, AID2721]; type: functional; settings: Homo sapiens
[5] = target: T3, High affinity choline transporter 1 (Homo sapiens, UniProt Q9GZV3); experiment: CHT inhibitors, dose response, cell-based, 5-point CRC, membrane potential dye (AID 504840); type: functional
T3 sequence (Q9GZV3 whole entry): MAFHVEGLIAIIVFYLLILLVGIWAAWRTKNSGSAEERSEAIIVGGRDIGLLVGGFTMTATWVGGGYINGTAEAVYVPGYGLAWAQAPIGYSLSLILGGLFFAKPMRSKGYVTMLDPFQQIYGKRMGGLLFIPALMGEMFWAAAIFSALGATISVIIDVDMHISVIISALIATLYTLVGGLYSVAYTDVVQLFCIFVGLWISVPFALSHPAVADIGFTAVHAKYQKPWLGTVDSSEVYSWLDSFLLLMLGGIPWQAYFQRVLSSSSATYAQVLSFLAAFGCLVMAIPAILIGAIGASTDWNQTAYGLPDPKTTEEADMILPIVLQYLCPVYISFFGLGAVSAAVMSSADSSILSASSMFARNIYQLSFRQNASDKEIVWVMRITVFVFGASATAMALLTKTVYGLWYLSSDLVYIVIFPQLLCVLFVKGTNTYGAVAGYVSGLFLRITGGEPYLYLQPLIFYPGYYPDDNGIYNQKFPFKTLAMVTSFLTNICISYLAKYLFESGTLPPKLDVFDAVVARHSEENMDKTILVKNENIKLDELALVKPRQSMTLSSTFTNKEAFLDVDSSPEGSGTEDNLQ

[6] = target: T4, Polyadenylate-binding protein 1 (Homo sapiens, UniProt P11940); experiment: PABP1 MLLE–PAM2 interaction inhibitors, dose response, miRNA deadenylation inhibitor project, biochemical, fluorescence polarization, Cy5-PAM2 peptide, secondary (AID 602260); type: functional; settings: read-out: IC50_Mean
[7] = target: T4, Polyadenylate-binding protein 1; experiment: PABP1 MLLE–PAM2 binding inhibitor potency, dose response, biochemical, fluorescence polarization, FITC-PAM2 peptide (AID 602259); type: functional; settings: read-out: IC50_Mean
[8] = target: T5, Exodeoxyribonuclease V (Escherichia coli (strain K12), UniProt P04993+P07648+P08394); experiment: E. coli RecBCD inhibitors, dose response, counter-screen for AddAB inhibitor project, absorbance, V66 E. coli, mutant T4 phage (AID 492957); type: functional, cell-based, Escherichia coli str. K-12 substr. MG1655
T5 sequence (P04993 whole entry): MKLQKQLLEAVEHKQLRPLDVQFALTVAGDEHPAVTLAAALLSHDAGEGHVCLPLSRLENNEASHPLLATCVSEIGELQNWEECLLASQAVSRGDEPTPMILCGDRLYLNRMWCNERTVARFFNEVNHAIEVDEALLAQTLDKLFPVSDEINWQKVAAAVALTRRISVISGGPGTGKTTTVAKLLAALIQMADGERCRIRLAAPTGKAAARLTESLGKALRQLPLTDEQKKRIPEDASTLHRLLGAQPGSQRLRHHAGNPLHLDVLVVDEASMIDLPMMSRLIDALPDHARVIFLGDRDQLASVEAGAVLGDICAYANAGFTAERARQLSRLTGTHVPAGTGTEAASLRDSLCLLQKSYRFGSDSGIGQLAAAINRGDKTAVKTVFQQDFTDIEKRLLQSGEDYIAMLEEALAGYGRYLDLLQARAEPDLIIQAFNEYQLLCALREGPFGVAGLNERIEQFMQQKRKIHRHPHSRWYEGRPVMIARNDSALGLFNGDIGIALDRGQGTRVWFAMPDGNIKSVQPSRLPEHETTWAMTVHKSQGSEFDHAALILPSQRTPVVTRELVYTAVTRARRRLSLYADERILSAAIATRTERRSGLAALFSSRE
T5 sequence (P07648 whole entry): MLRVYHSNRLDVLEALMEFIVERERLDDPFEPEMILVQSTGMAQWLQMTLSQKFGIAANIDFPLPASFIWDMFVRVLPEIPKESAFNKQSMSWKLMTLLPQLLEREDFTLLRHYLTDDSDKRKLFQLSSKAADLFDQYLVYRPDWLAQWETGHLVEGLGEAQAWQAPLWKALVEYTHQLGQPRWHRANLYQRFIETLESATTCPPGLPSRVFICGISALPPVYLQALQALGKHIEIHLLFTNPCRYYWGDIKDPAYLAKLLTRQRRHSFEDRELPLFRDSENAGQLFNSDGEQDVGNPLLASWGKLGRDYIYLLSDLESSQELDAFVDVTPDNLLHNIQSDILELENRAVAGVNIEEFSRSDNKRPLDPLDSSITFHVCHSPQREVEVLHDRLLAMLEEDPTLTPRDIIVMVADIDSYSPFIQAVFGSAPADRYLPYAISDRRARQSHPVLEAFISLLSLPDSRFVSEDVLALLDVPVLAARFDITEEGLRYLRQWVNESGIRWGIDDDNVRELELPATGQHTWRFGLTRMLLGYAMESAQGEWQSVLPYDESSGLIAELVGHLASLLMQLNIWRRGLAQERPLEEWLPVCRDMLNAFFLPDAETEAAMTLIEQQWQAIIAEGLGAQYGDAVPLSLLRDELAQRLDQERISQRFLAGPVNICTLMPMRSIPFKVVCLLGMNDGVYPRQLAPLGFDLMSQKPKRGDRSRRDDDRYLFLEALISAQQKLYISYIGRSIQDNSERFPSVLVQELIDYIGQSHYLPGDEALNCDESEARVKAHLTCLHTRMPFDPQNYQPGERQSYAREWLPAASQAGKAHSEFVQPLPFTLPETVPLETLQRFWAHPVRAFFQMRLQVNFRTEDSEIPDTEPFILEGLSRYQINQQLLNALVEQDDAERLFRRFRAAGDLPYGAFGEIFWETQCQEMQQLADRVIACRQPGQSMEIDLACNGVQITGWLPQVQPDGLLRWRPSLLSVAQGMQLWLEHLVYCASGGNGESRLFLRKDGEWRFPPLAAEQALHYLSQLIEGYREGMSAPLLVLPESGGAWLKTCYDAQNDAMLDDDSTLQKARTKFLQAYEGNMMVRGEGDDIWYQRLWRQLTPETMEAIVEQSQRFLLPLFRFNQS
T5 sequence (P08394 whole entry): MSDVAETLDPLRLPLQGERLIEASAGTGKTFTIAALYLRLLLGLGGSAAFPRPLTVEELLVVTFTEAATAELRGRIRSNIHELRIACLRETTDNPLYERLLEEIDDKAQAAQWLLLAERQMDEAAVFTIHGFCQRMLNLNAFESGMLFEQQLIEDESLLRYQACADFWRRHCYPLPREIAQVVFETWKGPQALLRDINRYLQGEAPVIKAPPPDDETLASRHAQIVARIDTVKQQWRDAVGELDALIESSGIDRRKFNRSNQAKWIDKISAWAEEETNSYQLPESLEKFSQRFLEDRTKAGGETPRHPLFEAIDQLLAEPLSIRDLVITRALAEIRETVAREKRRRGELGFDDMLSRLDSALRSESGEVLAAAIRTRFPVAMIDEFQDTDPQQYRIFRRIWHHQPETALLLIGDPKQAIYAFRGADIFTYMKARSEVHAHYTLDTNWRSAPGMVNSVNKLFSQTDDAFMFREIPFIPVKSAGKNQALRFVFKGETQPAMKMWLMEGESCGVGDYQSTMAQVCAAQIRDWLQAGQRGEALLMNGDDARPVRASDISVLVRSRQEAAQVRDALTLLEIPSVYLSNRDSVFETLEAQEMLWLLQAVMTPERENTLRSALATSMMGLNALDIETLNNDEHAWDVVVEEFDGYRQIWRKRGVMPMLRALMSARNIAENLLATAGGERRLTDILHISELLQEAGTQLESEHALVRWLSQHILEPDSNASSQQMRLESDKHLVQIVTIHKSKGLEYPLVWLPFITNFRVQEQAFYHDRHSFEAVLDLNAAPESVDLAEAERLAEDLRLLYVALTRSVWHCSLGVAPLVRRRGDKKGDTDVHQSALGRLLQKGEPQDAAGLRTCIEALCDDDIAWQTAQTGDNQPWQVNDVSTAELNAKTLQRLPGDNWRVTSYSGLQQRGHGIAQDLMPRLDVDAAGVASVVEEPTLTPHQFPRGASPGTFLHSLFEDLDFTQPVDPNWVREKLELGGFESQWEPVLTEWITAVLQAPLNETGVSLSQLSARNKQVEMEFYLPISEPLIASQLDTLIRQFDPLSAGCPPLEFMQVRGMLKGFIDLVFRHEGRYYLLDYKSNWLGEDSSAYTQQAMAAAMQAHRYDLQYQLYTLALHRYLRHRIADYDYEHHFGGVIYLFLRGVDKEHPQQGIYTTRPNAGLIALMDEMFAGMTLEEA

[9] = tested on: P388/ADR; experiment: cells; type: functional; settings: Mus musculus
[10] = tested on: SN12K1; experiment: cells; type: functional; settings: Homo sapiens
[11] = tested on: P388; experiment: cells; type: functional; settings: Mus musculus
[12] = microbe, parasite or virus in culture; type: functional; settings: Mycobacterium tuberculosis

T4 sequence (P11940 whole entry): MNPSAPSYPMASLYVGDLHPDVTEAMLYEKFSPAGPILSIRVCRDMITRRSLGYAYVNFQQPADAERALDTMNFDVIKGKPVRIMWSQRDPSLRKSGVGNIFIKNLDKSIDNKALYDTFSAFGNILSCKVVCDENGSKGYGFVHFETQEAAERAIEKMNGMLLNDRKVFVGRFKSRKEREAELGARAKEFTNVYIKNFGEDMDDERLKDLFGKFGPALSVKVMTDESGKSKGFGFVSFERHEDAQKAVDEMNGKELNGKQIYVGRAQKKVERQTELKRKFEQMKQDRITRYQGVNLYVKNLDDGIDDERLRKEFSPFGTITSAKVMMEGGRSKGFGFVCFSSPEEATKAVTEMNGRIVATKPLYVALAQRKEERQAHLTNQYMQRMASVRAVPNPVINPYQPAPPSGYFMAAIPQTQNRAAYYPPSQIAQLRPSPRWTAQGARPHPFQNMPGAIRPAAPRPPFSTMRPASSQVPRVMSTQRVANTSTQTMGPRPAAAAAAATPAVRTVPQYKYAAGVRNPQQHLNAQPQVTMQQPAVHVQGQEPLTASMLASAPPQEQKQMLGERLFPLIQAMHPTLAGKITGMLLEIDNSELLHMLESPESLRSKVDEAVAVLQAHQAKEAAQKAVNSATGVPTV

COc1ccc(OC)c(NC(=O)Nc2ccc(O)c3ccccc23)c1
AC50 [1]: 11.5 µM (active)
AC50 [2]: 0.434 µM (active)
EC50 [3]: 0.152 µM (active)

Oc1cccc(C(O)CNCc2ccc(OCc3ccc(Cl)cc3Cl)cc2)c1 (configuration not stated)
AC50 [4]: 3.69 µM (active)
IC50 [5]: 1.82 µM (active)

O=C(NC(=S)Nc1ccccc1Cl)c1cncc(Br)c1
IC50 [6]: > 66 µM (inactive)
IC50 [7]: > 66 µM (inactive)

C=CCn1cc(C(=O)NCCCN(CC)CC)c(=O)c2cc(S(=O)(=O)N3CCC(C)CC3)ccc21
IC50 [5]: 13.2 µM (active)

CCc1cn([C@H]2C[C@H](O)[C@@H](CO)O2)c(=O)[nH]c1=O [EDOXUDINE]
IC50 [8]: > 119 µM (inactive) and > 118 µM (inactive)

Cc1ccc(S(=O)(=O)Oc2ccc(/C=C3/C(=N)N4C(=NC3=O)SN=C4S(C)(=O)=O)cc2)cc1
IC50 [5]: 13.8 µM (active)

O=C(/C=C/c1ccccc1)CCN1CCOCC1
AC50 [2]: 2.94 µM (active)
GI50 [9]: 2.43 µM (inactive)
GI50 [10]: 16.5 µM (inactive)
GI50 [11]: 2.81 µM (inactive)

Cc1cccc(C2c3[nH]c4ccccc4c3CCN2C(=O)c2cc3c(nc2O)CCCC3)n1 (configuration not stated)
IC50 [5]: 11.2 µM (active)

O=C(OCC(=O)C12CC3CC(CC(C3)C1)C2)c1ccc(O)cc1O
CC50 [12]: > 40 µM (active)
AC50 [2]: 24.5 µM (active)
